Test results taken from PubChem BioAssay AID1963972 (Molecular Pharmacology Branch, DTP, NCI, 2024).

System: 945468-187-T-J2-PDC spheroids viability
Assay: Anticancer human tumor 945468-187-T-J2-PDC patient-derived rectal carcinoma cell line growth inhibition [PI3K]
Details: spheroids with HUVEC and MSC; for IC50: curve of first compound; for viability, T/C: stronger effect = lower value
How it was run: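 Viability of mixed-cell spheroids was determined after exposure to pairwise combinations, one partner being inavolisib, alpelisib, duvelisib or copanlisib. Highest tested concentration matched clinical Cmax where known and 10 microM where not, descending in half-log steps.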

[1] = second compound 0.00316 µM, first compound 0.0316 µM
[2] = second compound 0.00316 µM, first compound 0.1 µM
[3] = second compound 0.00316 µM, first compound 0.316 µM
[4] = second compound 0.00316 µM, first compound 1 µM
[5] = second compound 0.01 µM, first compound 0.0316 µM
[6] = second compound 0.01 µM, first compound 0.1 µM
[7] = second compound 0.01 µM, first compound 0.316 µM
[8] = second compound 0.01 µM, first compound 1 µM
[9] = second compound 0.0316 µM, first compound 0.0316 µM
[10] = second compound 0.0316 µM, first compound 0.1 µM
[11] = second compound 0.0316 µM, first compound 0.316 µM
[12] = second compound 0.0316 µM, first compound 1 µM
[13] = second compound 0.1 µM, first compound 0.0316 µM
[14] = second compound 0.1 µM, first compound 0.1 µM
[15] = second compound 0.1 µM, first compound 0.316 µM
[16] = second compound 0.1 µM, first compound 1 µM
[17] = second compound 0.316 µM, first compound 0.0316 µM
[18] = second compound 0.316 µM, first compound 0.1 µM
[19] = second compound 0.316 µM, first compound 0.316 µM
[20] = second compound 0.316 µM, first compound 1 µM
[21] = second compound 1 µM, first compound 0.0316 µM
[22] = second compound 1 µM, first compound 0.1 µM
[23] = second compound 1 µM, first compound 0.316 µM
[24] = second compound 1 µM, first compound 1 µM
[25] = second compound 0.00316 µM, first compound 3.16 µM
[26] = second compound 0.00316 µM, first compound 10 µM
[27] = second compound 0.01 µM, first compound 3.16 µM
[28] = second compound 0.01 µM, first compound 10 µM
[29] = second compound 0.0316 µM, first compound 3.16 µM
[30] = second compound 0.0316 µM, first compound 10 µM
[31] = second compound 0.1 µM, first compound 3.16 µM
[32] = second compound 0.1 µM, first compound 10 µM
[33] = second compound 0.316 µM, first compound 3.16 µM
[34] = second compound 0.316 µM, first compound 10 µM
[35] = second compound 1 µM, first compound 3.16 µM
[36] = second compound 1 µM, first compound 10 µM
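Further: spheroids exposed to compounds for seven days before reading.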

In the case of `CCN1CCN(Cc2ccc(Nc3ncc(F)c(-c4cc(F)c5nc(C)n(C(C)C)c5c4)n3)nc2)CC1` + COc1c(OCCCN2CCOCC2)ccc2c3n(c(=NC(=O)c4cnc(N)nc4)nc12)CCN3, the IC50 (second compound 0.00316 µM) is reported as over 1000 nM, the IC50 (second compound 0.01 µM) is reported as over 1000 nM and the IC50 (second compound 0.0316 µM) is reported as 704 nM. The IC50 (second compound 0.1 µM) was 199 nM, the IC50 (second compound 0.316 µM) was under 3.16 nM and the IC50 (second compound 1 µM) was under 3.16 nM. It also gave a viability, T/C (second compound 0.00316 µM, first compound 0.00316 µM) of 107%, a viability, T/C (second compound 0.00316 µM, first compound 0.01 µM) of 93.5% and a viability, T/C [1] of 104%. For the same molecule, the viability, T/C [2] was 102%, the viability, T/C [3] was 87.6% and the viability, T/C [4] was 75.1%. For the same molecule, the viability, T/C (second compound 0.01 µM, first compound 0.00316 µM) was 119%, the viability, T/C (second compound 0.01 µM, first compound 0.01 µM) was 128% and the viability, T/C [5] was 94.9%. The viability, T/C [6] was 115%, the viability, T/C [7] was 84% and the viability, T/C [8] was 66.2%. For the same molecule, the viability, T/C (second compound 0.0316 µM, first compound 0.00316 µM) was 120%, the viability, T/C (second compound 0.0316 µM, first compound 0.01 µM) was 110% and the viability, T/C [9] was 92.9%. The viability, T/C [10] was 112%, the viability, T/C [11] was 69% and the viability, T/C [12] was 41.6%. The viability, T/C (second compound 0.1 µM, first compound 0.00316 µM) was 105%, the viability, T/C (second compound 0.1 µM, first compound 0.01 µM) was 91.8% and the viability, T/C [13] was 93.1%. The viability, T/C [14] was 72.7%, the viability, T/C [15] was 34.4% and the viability, T/C [16] was 22.1%. The viability, T/C (second compound 0.316 µM, first compound 0.00316 µM) was 48.7%, the viability, T/C (second compound 0.316 µM, first compound 0.01 µM) was 41.2% and the viability, T/C [17] was 39.5%. For the same molecule, the viability, T/C [18] was 24.4%, the viability, T/C [19] was 20.2% and the viability, T/C [20] was 21.4%. For the same molecule, the viability, T/C (second compound 1 µM, first compound 0.00316 µM) was 21.7%, the viability, T/C (second compound 1 µM, first compound 0.01 µM) was 20.8% and the viability, T/C [21] was 14.1%. It also gave a viability, T/C [22] of 17.9%, a viability, T/C [23] of 14.3% and a viability, T/C [24] of 16.3%.

`Cn1ncc(Cl)c1-c1cc(C(=O)NC(CN)Cc2cccc(F)c2)sc1Cl` (stereo unspecified) + COc1c(OCCCN2CCOCC2)ccc2c3n(c(=NC(=O)c4cnc(N)nc4)nc12)CCN3 showed an IC50 (second compound 0.00316 µM) of over 10000 nM, an IC50 (second compound 0.01 µM) of over 10000 nM and an IC50 (second compound 0.0316 µM) of 4530 nM. The IC50 (second compound 0.1 µM) was 2660 nM, the IC50 (second compound 0.316 µM) was under 31.6 nM and the IC50 (second compound 1 µM) was under 31.6 nM. The viability, T/C [1] was 109%, the viability, T/C [2] was 75.3% and the viability, T/C [3] was 98.3%. The viability, T/C [4] was 110%, the viability, T/C [25] was 76.8% and the viability, T/C [26] was 50.6%. For the same molecule, the viability, T/C [5] was 109%, the viability, T/C [6] was 102% and the viability, T/C [7] was 90.5%. For the same molecule, the viability, T/C [8] was 86.6%, the viability, T/C [27] was 77.2% and the viability, T/C [28] was 53.3%. For the same molecule, the viability, T/C [9] was 87.3%, the viability, T/C [10] was 82.5% and the viability, T/C [11] was 82.4%. For the same molecule, the viability, T/C [12] was 68.9%, the viability, T/C [29] was 54.3% and the viability, T/C [30] was 41.4%. The viability, T/C [13] was 65.6%, the viability, T/C [14] was 84.9% and the viability, T/C [15] was 75.2%. For the same molecule, the viability, T/C [16] was 73%, the viability, T/C [31] was 46% and the viability, T/C [32] was 32.2%. For the same molecule, the viability, T/C [17] was 38.8%, the viability, T/C [18] was 34.8% and the viability, T/C [19] was 35.4%. It also gave a viability, T/C [20] of 28.8%, a viability, T/C [33] of 32.2% and a viability, T/C [34] of 26.1%. For the same molecule, the viability, T/C [21] was 18.5%, the viability, T/C [22] was 18.8% and the viability, T/C [23] was 18.2%. For the same molecule, the viability, T/C [24] was 19.6%, the viability, T/C [35] was 18.4% and the viability, T/C [36] was 14.2%.

For `Cn1nccc1Nc1nccc(-c2ccn(C(CO)c3ccc(Cl)c(F)c3)c(=O)c2)n1` (stereo unspecified) + COc1c(OCCCN2CCOCC2)ccc2c3n(c(=NC(=O)c4cnc(N)nc4)nc12)CCN3, the IC50 (second compound 0.00316 µM) was over 10000 nM, the IC50 (second compound 0.01 µM) was over 10000 nM and the IC50 (second compound 0.0316 µM) was over 10000 nM. It also gave an IC50 (second compound 0.1 µM) of over 10000 nM, an IC50 (second compound 0.316 µM) of under 31.6 nM and an IC50 (second compound 1 µM) of under 31.6 nM. It also gave a viability, T/C [1] of 117%, a viability, T/C [2] of 108% and a viability, T/C [3] of 98.9%. It also gave a viability, T/C [4] of 83.7%, a viability, T/C [25] of 90.9% and a viability, T/C [26] of 80.7%. It also gave a viability, T/C [5] of 99%, a viability, T/C [6] of 93.7% and a viability, T/C [7] of 90.1%. For the same molecule, the viability, T/C [8] was 136%, the viability, T/C [27] was 127% and the viability, T/C [28] was 84.2%. For the same molecule, the viability, T/C [9] was 91.9%, the viability, T/C [10] was 102% and the viability, T/C [11] was 100%. For the same molecule, the viability, T/C [12] was 89.1%, the viability, T/C [29] was 93.5% and the viability, T/C [30] was 89.2%. The viability, T/C [13] was 71%, the viability, T/C [14] was 75.9% and the viability, T/C [15] was 81.1%. For the same molecule, the viability, T/C [16] was 82.2%, the viability, T/C [31] was 84.3% and the viability, T/C [32] was 64.9%. The viability, T/C [17] was 39.8%, the viability, T/C [18] was 45.6% and the viability, T/C [19] was 45.3%. For the same molecule, the viability, T/C [20] was 41.7%, the viability, T/C [33] was 33.4% and the viability, T/C [34] was 27.8%. The viability, T/C [21] was 18.1%, the viability, T/C [22] was 19.8% and the viability, T/C [23] was 21.8%. It also gave a viability, T/C [24] of 18.6%, a viability, T/C [35] of 18.6% and a viability, T/C [36] of 16.8%.
